In ChEMBL document CHEMBL3507680, “University of Dundee, Gates Library screen for HepG2 cell viability”:

Assay: Human HepG2 cell viability assay in 384 well format
Type: toxicity, cell-based
Set-up: dose 125 nL, time 70.5 hour; cytotoxicity at 70.5 h: concentration not given beside the values
Settings: HepG2 cells, read-out: Inhibition

SMILES	cytotoxicity at 70.5 h
COc1ccc(OCc2cc(C(=O)N3CCN[C@H](C)C3)n[nH]2)c(Cl)c1	-9.79%
Cc1nc(CN(Cc2ccc3c(c2)OCCO3)C2CCCC2)no1	-7.64%
O=C(c1cc2c(Cl)cccc2[nH]1)N1CCN(CCc2ccccn2)CC1	24.6%
Cc1cnn(CC2CN(CC(=O)Nc3nncs3)CCO2)c1 (centres undefined)	-1.53%
Cc1cc(CN2C[C@H](OCC3CCOCC3)[C@H]3COC[C@H]32)oc1C	-0.082%
COc1ccccc1CC(C)(C)NC(=O)CN(C)C(C)C	-11.5%
Cc1nnc2n1CC(CNc1ncnc3ccccc13)CC2 (centres undefined)	-11.6%
CC(Cn1cccn1)NCc1nc(-c2ccc3c(c2)OCO3)no1 (centres undefined)	13%
COc1ccccc1C(=O)N1CC(=O)N(CC2CC2)CC(O)C1 (centres undefined)	-0.352%
Cc1ccc(CCNc2nccc(-c3cc(C(=O)O)ccn3)n2)o1	-6.22%
CCOc1ccnc(N2CCCN(C(=O)c3cc[nH]c3C)CC2)n1	17.6%
Cc1cn(-c2ccccc2)nc1NS(=O)(=O)c1cc(C(=O)O)ccc1Cl	-9.13%
Cc1noc(CCCc2nc(C3CCOC3)no2)n1 (centres undefined)	-18.7%
CN1CCOC(CNCCc2ccccn2)C1 (centres undefined)	-1.1%
COCCN(Cc1ccco1)Cc1nc(-c2ccccc2C)no1	1.45%
O=C(c1sccc1Cl)N1CCC(Cn2cc(CO)nn2)CC1	-4.2%
CCN1CC(C(=O)N2CCc3cc(C(N)=O)n(C)c3C2)CCC1=O (centres undefined)	-6.08%
Cc1cnc(N)c(C(=O)C2CCN(C(=O)c3cnc(C)nc3C)CC2)c1	-6.36%
CC(NC(=O)Cc1cccs1)c1nnc2n1CCC2 (centres undefined)	-7.18%
O=C(C1CCC1)N1CCC2(CC1)OCCO2	-7.76%
O=c1cc(C2CCNCC2)nc(Cc2cccc(Cl)c2)[nH]1	-5.11%
Cn1ccnc1NC[C@@H]1CCC[C@@H]2CN(Cc3nccs3)C[C@@H]21	-0.236%
Cc1ccc(SCCN(C)C(=O)c2cn(CCN)nn2)cc1	16.5%

SMILES	cytotoxicity at 70.5 h
Cc1cccc(N2CCN(CCCNC(=O)c3nccn3C)CC2)c1	-3.1%
O=C(Nc1cccc(CNCc2cccs2)c1)C1CCCC1	-15%
Cc1ccc(CCCC(=O)N2CCC(CS(N)(=O)=O)CC2)s1	-18.3%
Cc1cnc(CCNC(Cc2ccncc2)C(F)(F)F)s1 (centres undefined)	-7.12%
CC(c1nc(C2CC2)no1)N1CCc2c(ncn2C)C1 (centres undefined)	0.478%
CC1CN(C)CCN1C(=O)c1cnc2c(cnn2C2CCCC2)c1 (centres undefined)	-2.54%
CN(Cc1ccon1)C(=O)CN1C(=O)OC(C)(C)C1=O	-11.5%
O=C(CCc1cccs1)N1CCCC1c1noc(C2CC2)n1 (centres undefined)	-6.44%
CCCc1cc(N2CCC(NC3CCOCC3)CC2)nc(C)n1	22.8%
Cc1ccc(CNCc2c(C(C)C)nn(C)c2N2CCOCC2)s1	-19.6%
CC(NC(=O)COc1ccccc1C(=O)O)c1ccc(F)cc1 (centres undefined)	-9.45%
CCCc1ccc2oc(C(=O)N3CCC(O)CC3)c(C)c2c1	6.68%
Cc1ccc(-c2nc(CN3CCn4c(nnc4C4CC4)C3)cs2)o1	14.8%
CC1=C(c2ccc(F)cc2)S(=O)(=O)N=C1N1CCc2ccccc21	-4.74%
CC(=O)N(Cc1noc(C)n1)C1CCN(CCOc2ccccc2)C1 (centres undefined)	1.16%
Cc1cccc(OCC(O)CNCc2c(C)nn(C)c2N(C)C)c1 (centres undefined)	-8.26%
CC(C)c1ncc2c(n1)CN(Cc1cccc(C#N)c1)CC2	4.14%
Cc1nc(CN2CCCn3cnc(COC(C)C)c3C2)cs1	-2.95%
O=C(Nc1ccccc1OCCc1ccccn1)NC1CCOCC1	18.2%
COC1COC2(CCN(Cc3cccc(Cl)c3)CC2)C1 (centres undefined)	-9.84%
Cc1cncc(C2CCCN(C(=O)c3c[nH]c(=O)[nH]c3=O)C2)n1 (centres undefined)	-22.8%
CN(C)c1ncccc1CNS(=O)(=O)c1ccccc1Cl	-4.36%
CN(C)c1cc(CNC(=O)NCC2(C)CCCS2)ccn1 (centres undefined)	10.1%

SMILES	cytotoxicity at 70.5 h
CN1[C@H](Cn2cccn2)C[C@@H]2CN(C(=O)Cc3cccs3)CC[C@@H]21	24.7%
NCC1Cn2nnc(-c3cccc(F)c3)c2CO1 (centres undefined)	-4.77%
COc1cc(F)ccc1N(C)Cc1ccccn1	-1.59%
COc1cc(CN(C)C(=O)NCc2nccs2)ccc1SC	-6.87%
COc1ccc(-n2ccc(C(=O)NCCN3CCCCC3C)n2)cc1 (centres undefined)	7.59%
Cc1ccc(CN(C(=O)c2cccc(NC(N)=O)c2)C2CC2)o1	-10.5%
O=C(NCCc1cccs1)[C@H]1CO[C@H]2CCN(CC3CC3)C[C@H]2C1	-5.6%
O=C(C[C@@H]1COC[C@H]2CN(Cc3ccncc3)C[C@@H]12)N1CCCC1	11.8%
c1ccc(Cn2cncn2)c(CNCC2CNc3ccnn3C2)c1 (centres undefined)	-13.5%
Cn1cc(CN2CCCC23CCN(C(=O)c2cccs2)CC3)cn1	-11.6%
Cc1nn(CC(=O)Nc2ccon2)cc1Br	-10.2%
CSCc1noc(CNC(=O)C2CCN(C(=O)C3CCC3)CC2)n1	-11.8%
CN1C(=O)C2(CCN(c3nccc4occc34)CC2)c2ccccc21	9.71%
Cn1cnnc1S(=O)(=O)C1CCN(S(=O)(=O)c2c(Cl)cccc2Cl)CC1	-8.23%
O=C(C1CCOC1)N1CC2(CCN(c3ccccc3)C2)C1 (centres undefined)	-0.441%
COc1ccc(CN(C)C(=O)NCc2c(C)cc(C)[nH]c2=O)cc1	-4.65%
O=C(NC(Cc1ccsc1)c1nccs1)C1CCOCC1 (centres undefined)	-14.6%
Cc1cc2ccccc2n1CCC(=O)N1CCC2(CC1)CNC(=O)C2	3.32%
O=C(c1ccc(Cl)s1)N1CCCn2nc(CN3CC[C@H](F)C3)cc2C1	-10.2%
CC1CCN(C(=O)[C@@H]2C[C@@H]3CCN(Cc4nccs4)C[C@H]3O2)CC1	-6.62%
O=C(NC1CCc2ccccc2C1)C1CCN(Cc2ccco2)CC1 (centres undefined)	-2.67%
Cc1nc(CCCNC(=O)Nc2cc(F)cc(F)c2)n[nH]1	-11.9%
COCCN1C(=O)C[C@H]2[C@H]1CCN2Cc1ccc(OC)cc1	-7.39%

SMILES	cytotoxicity at 70.5 h
Cc1nc2c(c(NC(C)C)n1)CCN(C1CCOCC1)CC2	2.46%
COc1c(C2CCCN2C(=O)c2cccc(C)n2)c(C)nn1C (centres undefined)	-16.2%
COCCOCCNC(=O)c1ccc(N2CCC(C)=N2)cc1	-3.96%
CN(C)c1no[n+]([O-])c1-c1ccccc1	20.3%
Cn1cc(CN2CC[C@]3(C[C@H](OCc4ccccn4)CO3)C2)cn1	-22.4%
CN(C)C(=O)C1CN(Cc2ccccc2)CCN(S(C)(=O)=O)C1 (centres undefined)	-6.37%
CCOCCOC(C)C(=O)Nc1ccc2ccn(CCN(C)C)c2c1 (centres undefined)	-1.63%
COc1cc2ccn(CCS(C)(=O)=O)c(=O)c2cc1F	-2.4%
Cc1cc(C)n(CC2CN(CC(=O)N3CCC3)CCO2)n1 (centres undefined)	-13.4%
CCS(=O)(=O)NCC(=O)NC1(C)CCc2ccccc2C1 (centres undefined)	-5.54%
COC[C@]12COC[C@H]1CN(Cc1cc(OC)cc(OC)c1)C2	-10.3%
O=C(c1ccc2c(c1)CCCC2)N1CCCC(n2cncn2)C1 (centres undefined)	-4.56%
Fc1ccc(OCc2noc(CN3CCc4cncnc4C3)n2)cc1	-4.28%
Cc1noc(C)c1CN(C)Cn1c(=O)n(C)c2ccccc21	-6.45%
Cc1ccoc1C(=O)N1CCCN(Cc2cnn(C)c2)CC1	-17.4%
CCCC(=O)N(C)C(c1cccc(F)c1)c1ccccn1 (centres undefined)	-3.08%
Cc1cc(Cl)ccc1-n1ncc(C(=O)N(C)CCc2ccccn2)c1N	49.3%
CCSc1nnc(CCNC(=O)OC(C)(C)C)o1	13%
CN(Cc1ccc(Cl)s1)C(=O)NCCC(=O)N1CCCCCC1	-4.9%
COc1ccc(C2CCCN2Cc2cnn(C)c2)cc1 (centres undefined)	-9.31%
O=C(Cc1ccc(-c2ccccc2)cc1)N1CCOCC(O)C1 (centres undefined)	-9.74%
Cc1cc(C(=O)NCC2COCc3c(C)nnn3C2)no1 (centres undefined)	-6.83%
Cc1nc2cc(-c3nccn3C)nn2c(N2CCCC(CO)C2)c1C (centres undefined)	2.86%

SMILES	cytotoxicity at 70.5 h
Cc1noc(C)c1CN(Cc1cccs1)C1CCS(=O)(=O)C1 (centres undefined)	15.7%
Cn1nc(-c2cccc(Cl)c2)c(Br)c1C(=O)O	-16.9%
NC(=O)c1cccc(C2CCN(c3ncccn3)CC2)n1	-13.4%
COCc1nc(C(=O)N2CCCC2c2noc(C)n2)cs1 (centres undefined)	-9.63%
c1cnc(-c2noc(C3CN(Cc4ccc5c(c4)CCO5)C3)n2)cn1	-9.18%
CCc1nnc2n1CCN(C(=O)c1cnc3c(cnn3C(C)C)c1)C2	-8.43%
CNS(=O)(=O)Cc1cccc(CNc2ccc(C#N)cn2)c1	-10.5%
Cc1cccnc1NC(=O)c1ccc(-n2ncc(C#N)c2N)cc1	-4.45%
CCc1cc(N2CCCC(CC)(C(=O)O)C2)nc(N2CCOCC2)n1 (centres undefined)	13.3%
O=C(c1ccc(Cl)cc1)N1CCCn2nnc(Cn3cccn3)c2C1	1.05%
COc1cccc(CC(=O)NCC(Cc2ccc(F)cc2)C(N)=O)c1 (centres undefined)	-4.64%
CC(C)C(C)(C#N)NC(=O)Cn1cc(C(N)=O)c(-c2ccccc2)n1 (centres undefined)	-6.34%
Cc1noc(C)c1CN1CCO[C@H]2[C@H](Oc3ncccc3F)CC[C@@H]21	-9.05%
CN1CCCC2(CCN(C(=O)Cc3cc4c(cc3Cl)OCCO4)C2)C1=O (centres undefined)	-2.31%
CC(C)NC(=O)CCNC(=O)c1cc(Br)cn1C(C)C	1.21%
CN1CCCN(C(=O)NCc2cc(Br)cs2)CC1	-1.99%
O=C(c1ccco1)N1CCc2ncnc(Oc3cccnc3)c2CC1	-0.464%
COC1COC2(CCN(C(=O)c3cnc(C)cn3)CC2)C1 (centres undefined)	-6.81%
Cc1noc(C)c1C(=O)N1C[C@@H]2COC[C@]2(COc2ccccn2)C1	10.4%
Cc1nccn1-c1cccc(C2CCCN2S(=O)(=O)c2cn(C)cn2)n1 (centres undefined)	31.6%
Cc1nc(C2CCCN(C(=O)c3cc(Cl)c[nH]3)C2)sc1C (centres undefined)	-2.27%
CCN(CC)c1ccc(CNC(=O)c2cnccn2)cn1	18%
